Source: ChEMBL document CHEMBL2073865 (Drug Metab Dispos, 2004)
Where a name gives a salt, the structure may show the parent alone. One block for each molecule: values may come before it.

Tests used:
Format in all cases: functional, cell-based
[1] = biological target: T1, ATP-dependent translocase ABCB1 (Homo sapiens, UniProt P08183); assay: TP_TRANSPORTER: transepithelial transport of erythromycin in the presence of 3-Carboxy-4-methyl-5-propyl-2-furanpropanoic acid at 500uM and 1mM in MDR1-expressing MDCK cells; conditions: dog
[2] = biological target: T1, ATP-dependent translocase ABCB1; assay: TP_TRANSPORTER: transepithelial transport of erythromycin in the presence of Hippurate at 2mM in MDR1-expressing MDCK cells; conditions: dog, 2000 µM
[3] = biological target: T1, ATP-dependent translocase ABCB1; assay: TP_TRANSPORTER: transepithelial transport of erythromycin in the presence of Indoxyl sulfate at 1mM in MDR1-expressing MDCK cells; conditions: dog, 1000 µM

T1 sequence (P08183 whole entry): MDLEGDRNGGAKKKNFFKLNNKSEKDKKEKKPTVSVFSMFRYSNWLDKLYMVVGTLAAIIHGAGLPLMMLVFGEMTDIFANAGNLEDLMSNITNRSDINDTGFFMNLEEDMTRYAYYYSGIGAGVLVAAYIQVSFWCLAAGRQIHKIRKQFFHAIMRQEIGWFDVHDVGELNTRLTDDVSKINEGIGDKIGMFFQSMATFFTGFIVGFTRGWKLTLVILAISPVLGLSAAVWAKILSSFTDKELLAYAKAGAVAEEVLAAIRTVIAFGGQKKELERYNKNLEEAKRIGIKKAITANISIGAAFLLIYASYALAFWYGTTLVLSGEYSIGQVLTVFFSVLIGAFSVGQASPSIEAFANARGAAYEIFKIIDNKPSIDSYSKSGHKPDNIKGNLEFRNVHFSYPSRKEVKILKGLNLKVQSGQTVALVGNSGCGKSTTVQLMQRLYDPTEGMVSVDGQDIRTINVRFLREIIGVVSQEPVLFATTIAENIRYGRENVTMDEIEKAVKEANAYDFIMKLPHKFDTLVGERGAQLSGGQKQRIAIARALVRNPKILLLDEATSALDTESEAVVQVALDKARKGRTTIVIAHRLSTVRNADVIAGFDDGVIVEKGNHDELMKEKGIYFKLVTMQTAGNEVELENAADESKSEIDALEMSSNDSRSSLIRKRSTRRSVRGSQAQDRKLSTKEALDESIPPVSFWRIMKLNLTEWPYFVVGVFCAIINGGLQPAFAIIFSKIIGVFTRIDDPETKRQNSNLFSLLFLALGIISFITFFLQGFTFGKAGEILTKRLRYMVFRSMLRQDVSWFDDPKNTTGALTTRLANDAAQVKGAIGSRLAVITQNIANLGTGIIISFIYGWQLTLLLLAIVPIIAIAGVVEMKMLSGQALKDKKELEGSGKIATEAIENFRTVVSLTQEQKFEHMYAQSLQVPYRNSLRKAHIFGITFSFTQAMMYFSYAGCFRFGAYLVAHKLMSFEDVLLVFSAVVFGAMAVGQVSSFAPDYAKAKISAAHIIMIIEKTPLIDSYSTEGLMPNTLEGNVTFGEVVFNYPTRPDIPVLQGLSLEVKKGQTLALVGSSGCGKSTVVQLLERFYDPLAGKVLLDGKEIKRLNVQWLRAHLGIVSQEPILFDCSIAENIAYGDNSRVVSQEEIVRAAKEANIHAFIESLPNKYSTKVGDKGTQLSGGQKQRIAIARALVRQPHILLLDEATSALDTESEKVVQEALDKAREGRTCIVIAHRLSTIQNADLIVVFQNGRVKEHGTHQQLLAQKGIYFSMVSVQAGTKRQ

Activity [1]: is not an inhibitor [-]
Structure (SMILES): CCCc1oc(CCC(=O)O)c(C(=O)O)c1C

Activity [2]: is not an inhibitor [-]
Structure (SMILES): O=C(O)CNC(=O)c1ccccc1 [HIPPURIC ACID]

Activity [3]: is not an inhibitor [-]
Structure (SMILES): O=S(=O)(O)Oc1c[nH]c2ccccc12 [INDOXYL SULFATE]
